Data from US9920030B2 (priority 2006, dated 2018).

Key:
Assay type in all cases: in vivo
[1] = test system: Plasmopara vilicola (the causal agent of grape downy mildew); assay: Test A: grape downy mildew, test suspension sprayed on grape seedlings after inoculation, visual disease rating
Description: General protocol for preparing test suspensions for Test A-C: The test compounds were first dissolved in acetone in an amount equal to 3% of the final volume and then suspended at the desired concentration (in ppm) in acetone and purified water (50/50 mix by volume) containing 250 ppm of the surfactant Trem® 014 (polyhydric alcohol esters). The resulting test suspensions were then used in Tests A-C. Spraying a 200 ppm test suspension to the point of run-off on the test plants was equivalent to a rate of 500 g/ha.
Grape seedlings were inoculated with a spore suspension of Plasmopara vilicola (the causal agent of grape downy mildew) and incubated in a saturated atmosphere at 20° C. for 24 h. After a short drying period, the test suspension was sprayed to the point of run-off on the grape seedlings, which were then moved to a growth chamber at 20° C. for 5 days, after which time the grape seedling were placed back into a saturated atmosphere at 20° C. for 24 h. Upon removal, visual disease ratings were made.
Results for Tests A-C are given in Table A. In the table, a rating of 100 indicates 100% disease control and a rating of 0 indicates no disease control (relative to the controls). A dash (-) indicates no test results.

[2] = test system: Phytophthora infestans (the causal agent of tomato late blight); assay: whole plant or invertebrate
[3] = test system: Phytophthora infestans (the causal agent of tomato late blight); assay: whole plant or invertebrate; remark: listed apart in the source
[4] = compounds without asterisk (application rate not given), 100 = 100% disease control, 0 = no control relative to the controls

| SMILES | Percent Disease Control, Test A ([1]; * tested at 40 ppm) | Percent Disease Control, Test B ([2]; * tested at 40 ppm) | Percent Disease Control, Test C ([3]; * tested at 40 ppm) | Percent Disease Control, Test A [1, 4] | Percent Disease Control, Test B [2, 4] | Percent Disease Control, Test C [3, 4] |
| --- | --- | --- | --- | --- | --- | --- |
| Cc1cc(C(F)(F)F)nn1CC(=O)N1CCC(c2nc(C3=NCC(c4ccccc4)CO3)cs2)CC1 (stereo not drawn) [Compound 53] | 24% | 68% | 26% |  |  |  |
| Cc1cc(C(F)(F)F)nn1CC(=O)N1CCC(c2nc(C3=NC(c4ccccc4)CCO3)cs2)CC1 (stereo not drawn) [Compound 54] |  |  |  | 16% | 73% | 0% |
| COC(=O)C1CC(c2csc(C3CCN(C(=O)Cn4nc(C(F)(F)F)cc4C)CC3)n2)=NO1 (stereo not drawn) [Compound 55] |  |  |  | 17% | 26% | 0% |
| Cc1cc(C(F)(F)F)nn1CC(=O)N1CCC(c2nc(C3=NOC(C(C)(C)C)C3)cs2)CC1 (stereo not drawn) [Compound 56] |  |  |  | 99% | 100% | 99% |
| Cc1cc(C(F)(F)F)nn1CC(=O)N1CCC(c2nc(C3=NOC(CCBr)C3)cs2)CC1 (stereo not drawn) [Compound 57] |  |  |  | 99% | 100% | 99% |
| Cc1cc(C(F)(F)F)nn1CC(=O)N1CCC(c2nc(-c3nc4ccccc4[nH]3)cs2)CC1 [Compound 58] |  |  |  | 0% | 99% | 0% |
| Cc1cc(C(F)(F)F)nn1CC(=O)N1CCC(c2nc(-c3cc(-c4ccccc4F)on3)cs2)CC1 [Compound 59] | 97% | 100% | 91% |  |  |  |
| Cc1cc(C(F)(F)F)nn1CC(=O)N1CCC(c2nc(-c3cc(-c4ccccc4C(F)(F)F)on3)cs2)CC1 [Compound 60] |  |  |  | 100% | 95% | 94% |
| Cc1cc(C(F)(F)F)nn1CC(=O)N1CCC(c2nc(-c3ccc4ccccc4c3)cs2)CC1 [Compound 61] |  |  |  | 80% | 77% | 0% |
| Cc1cc(C(F)(F)F)nn1CC(=O)N1CCC(c2nc(-c3ccccc3)cs2)CC1 [Compound 62] |  |  |  | 73% | 73% | 26% |
| Cc1cc(C(F)(F)F)nn1CC(=O)N1CCC(c2nc(-c3cc(-c4ccc(F)cc4F)on3)cs2)CC1 [Compound 64] |  |  |  | 90% | 99% | 88% |
| Cc1cc(C(F)(F)F)nn1CC(=O)N1CCC(c2nc(C3CC(=O)N(c4ccccc4)C3)cs2)CC1 (stereo not drawn) [Compound 65] |  |  |  | 46% | 100% | 83% |
| Cc1cc(C(F)(F)F)nn1CC(=O)N1CCC(c2nc(C3=NOC(C#N)C3)cs2)CC1 (stereo not drawn) [Compound 66] |  |  |  | 48% | 63% | 73% |
| Cc1cc(C(F)(F)F)nn1CC(=O)N1CCC(c2nc(C3=NOC4(CCCC4)C3)cs2)CC1 [Compound 67] | 100% | 100% | 99% |  |  |  |
| Cc1cc(C(F)(F)F)nn1CC(=O)N1CCC(c2nc(-c3nc(-c4ccccc4)no3)cs2)CC1 [Compound 68] |  |  |  | 96% | 95% | 88% |
| Cc1cc(C(F)(F)F)nn1CC(=O)N1CCC(c2nc(-c3ccc(Oc4ccccc4)cc3)cs2)CC1 [Compound 72] |  |  |  | 72% | 100% | 52% |
| Cc1cc(C(F)(F)F)nn1CC(=O)N1CCC(c2nc(-c3cccc4ccccc34)cs2)CC1 [Compound 73] |  |  |  | 27% | 40% | 0% |
| Cc1cc(C(F)(F)F)nn1CC(=O)N1CCC(c2nc(-c3cccc(-c4ccccc4)c3)cs2)CC1 [Compound 74] |  |  |  | 50% | 40% | 0% |
| Cc1cc(C(F)(F)F)nn1CC(=O)N1CCC(c2nc(-c3cccc(Oc4ccccc4)c3)cs2)CC1 [Compound 75] |  |  |  | 72% | 24% | 0% |
